From patent US12295959B2 (priority 2021, dated 2025) come the findings set out here.

Molecules are shown by their SMILES.

For one test, the system named is 5HT2A sensor. Format: cell-based.
The next test concerns mice. Put plainly: Head-twitch response (HTR). In kind it is in vivo. As to the method: Head twitch response (HTR) experiments. C57BL/6J Mice (9-10 weeks old) are housed following an IACUC approved protocol. The mice are habituated in the test cage for at least 30 min, injected intraperitoneally with compound (injection volume 5 ml/kg), returned to the empty test cage, and filmed for 20 minutes. Each video is scored for the number of head-twitches by a trained observer blinded to treatment condition.

Another test deals with rat cortical neurons. Put plainly: Neurite outgrowth assay. In kind it is cell-based. The arrangement: key: A: Statistically significant mean increase as a percent of DMSO control at 10 μM or less.; B: No statistically significant mean increase as a percent of DMSO control at 10 μM or less. As to conditions: 72 h, 10 μM or less, vs DMSO control. From the text:
Neurite Outgrowth Assay. Changes in the pattern of neurite outgrowth have been implicated in psychiatric and neurodegenerative disorders as well as traumatic injuries. The discovery of new compounds that can positively affect neuritogenesis are important for developing new therapeutics for neurological diseases. Measurement of neurite outgrowth of rat cortical neurons using an automated image-based assay was used to determine the neuroplastic effects of the compounds of the present invention. The neurite outgrowth assay was performed at Neurofit SAS (France) as described below.
Pregnant Wistar rats (Janvier; France) were used for the study. They were delivered 6 days before their use. Upon arrival at Neurofit animal facility, they were housed one per cage and maintained in a room with controlled temperature (21-22° C.) and a reversed light-dark cycle (12 h/12 h; lights on: 17:30-05:30; lights off: 05:30-17:30) with food and water available ad libitum.
Female Wistar rats of 17 days gestation were killed by cervical dislocation and the fetuses were removed from the uterus. Their brains were placed in ice-cold medium of Leibovitz (L15, Gibco, Fisher bioblock, France). Cortices were dissected and meninges were carefully removed. The cortical neurons were dissociated by trypsinization for 30 min at 37° C. (trypsin-EDTA, Gibco) in presence of 0.1 mg/ml DNAse I (Roche, France). The reaction was stopped by addition of Dulbecco's Modified Eagle Medium (DMEM; Gibco) with 10% of fetal bovine serum (FBS; Gibco). The suspension was triturated with a 10-ml pipette and using a needle syringe 21G and centrifuged at 350×g for 10 min at room temperature. The pellet of dissociated cells was resuspended in a medium consisting of Neurobasal (Gibco) supplemented with 2% B27 supplement (Gibco), 0.5 mM L-Glutamine (Gibco), an antibiotic-antimicotic mixture. Viable cells were counted in a Neubauer cytometer using the trypan blue exclusion test (Sigma). Cells were seeded at a density of 10000 cells per well in 96-well plate (Costar) precoated with poly-L-lysine. Test compound at different concentrations were added to the cultures. Donepezil (positive control) was tested at 250 nM.
After 72 h (3 days) of plating, cultures were fixed with paraformaldehyde in PBS (4%, Sigma) for 30 min at 4° C. Then, cells were successively permeabilized with 0.1% Triton X100 for 30 min, saturated with PBS containing 3% of BSA and were incubated 1 h with anti-beta III tubulin antibody (Sigma) at 1/10 000 in PBS containing 0.5% of BSA. Cells were washed three times with PBS containing 0.5% of BSA, and they were incubated 1 h with goat anti-mouse antibody coupled with AF488 (Invitrogen A 11001) diluted at 1/1000 in PBS containing 0.5% of BSA. Finally, nuclei were staining with DAPI 1 mg/ml at 1/1000 in PBS containing 0.5% of BSA. After rinsing with PBS, the plate was filmed and neurite networks were examined and analyzed using High-Content Screening (CellInsight, Thermo Scientific). The average number of neurites per neuron and the average total length of neurites per neuron were the main parameters analyzed. Analysis of data was performed using analysis of variance (ANOVA). The Fisher's Protected Least Significant Difference test was used for multiple comparisons. A p value≤0.05 was considered significant. The software used is StatView 5.0 from SAS Institut.

Test [1] deals with T1, 5-HT2A (Homo sapiens, UniProt P28223). The test can be described thus: Serotonin 5-HT2A in vitro cellular IPOne agonism assay (HTRF). Format: cell-based. The arrangement: host or cells: CHO-K1. As to conditions: CHO-K1 cells, agonist mode. As to the method: Serotonin 5-HT2A In Vitro Cellular IPOne Agonism Assay. The 5-HT2A IPOne HTRF assay was performed at Epics Therapeutics S.A. (Belgium, FAST-0505I) using conventional methods. Briefly, CHO-K1 cells expressing human recombinant 5-HT2A receptor grown to mid-log phase in culture media without antibiotics were detached with PBS-EDTA, centrifuged, and resuspended in medium without antibiotics buffer. 20,000 cells were distributed in a 96 well plate and incubated overnight at 37° C. with 5% CO2.
T1 sequence (P28223 whole entry): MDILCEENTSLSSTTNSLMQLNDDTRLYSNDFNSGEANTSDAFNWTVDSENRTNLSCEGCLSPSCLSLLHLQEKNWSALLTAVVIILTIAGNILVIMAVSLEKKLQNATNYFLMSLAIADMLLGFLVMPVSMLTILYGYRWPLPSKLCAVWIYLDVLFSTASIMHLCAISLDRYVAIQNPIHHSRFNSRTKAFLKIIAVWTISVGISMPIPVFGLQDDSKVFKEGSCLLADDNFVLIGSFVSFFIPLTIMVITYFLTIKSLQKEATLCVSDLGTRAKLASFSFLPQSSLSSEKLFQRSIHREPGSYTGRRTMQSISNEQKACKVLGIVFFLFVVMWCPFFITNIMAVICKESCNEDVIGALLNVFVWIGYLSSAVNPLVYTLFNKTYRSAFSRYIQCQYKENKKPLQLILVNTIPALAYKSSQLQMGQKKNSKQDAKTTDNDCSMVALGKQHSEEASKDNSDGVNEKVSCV
For agonist testing, the medium was removed and 20 μl of assay buffer plus 20 μl of test compound or reference agonist are added in each well. The plate was incubated for 60 min. at 37° C. with 5% CO2.
(§1) After addition of the lysis buffer containing IP1-d2 and anti-IP1 cryptate detection reagents, plates were incubated 1-hour at room temperature, and fluorescence ratios were measured according to the manufacturer specification, with the HTRF kit.

Test [2] has as its target T1, 5-HT2A. Put plainly: Serotonin 5-HT2A in vitro cellular IPOne antagonism assay. The arrangement: host or cells: CHO-K1. In kind it is cell-based. As to conditions: CHO-K1 cells, antagonist mode, reference agonist a-Me-5HT. The protocol: Serotonin 5-HT2A and 5-HT2C In Vitro Cellular IPOne Antagonism Assay. The 5-HT2A IPOne HTRF assay was performed at Epics Therapeutics S.A. (Belgium, FAST-0505I) in antagonism mode using conventional methods. Briefly, CHO-K1 cells expressing human recombinant 5-HT2A receptor grown to mid-log phase in culture media without antibiotics were detached with PBS-EDTA, centrifuged, and resuspended in medium without antibiotics buffer. 20,000 cells were distributed in a 96 well plate and incubated overnight at 37° C. with 5% CO2.
For antagonist testing, a reference agonist a-Me-5HT was added and fluorescence signal monitored for several minutes, followed by addition of 20 μl of assay buffer plus 20 μl of test compound or reference antagonist ketanserin, in each well. The plate was incubated for 60 min. at 37° C. with 5% CO2.
as §1

Test [3] concerns the target T1, 5-HT2A. Put plainly: Serotonin 5-HT2A in vitro radioligand binding competition assay ([3H]-DOI). As to conditions: [3H]-DOI competition, membrane extracts. The arrangement: purchased Epics Therapeutics S.A. (Belgium) FAST-0505B; host or cells: membrane extracts. As to the method:
Serotonin 5-HT2A In Vitro Radioligand Binding Competition Assay. The 5-HT2A radioligand binding competition assay was performed at Epics Therapeutics S.A. (Belgium, FAST-0505B) using conventional methods. Briefly, competition binding was performed in duplicate in the wells of a 96 well plate (Master Block, Greiner, 786201) containing binding buffer (optimized for each receptor), membrane extracts (amount of protein/well optimized for each receptor), radiotracer [^3H]-DOI (final concentration optimized for each receptor) and test compound. Nonspecific binding was determined by co-incubation with 200-fold excess of cold competitor. The samples were incubated in a final volume of 0.1 ml at a temperature and for a duration optimized for each receptor and then filtered over filter plates. Filters were washed six times with 0.5 ml of ice-cold washing buffer (optimized for each receptor) and 50 μl of Microscint 20 (Packard) was added in each well. The plates were incubated 15 min on an orbital shaker and then counted with a TopCount™ for 1 min/well.

`CCN(CC)C(=O)[C@@H]1C=C2c3cccc4[nH]c(Br)c(c34)C[C@H]2N(C)C1` [BOL148]: the “activation of the 5HT2A sensor assay in agonist mode” value (“activation of the 5HT2A sensor assay” for short) in the test on 5HT2A sensor is given as “do not activate”.

As to `COc1ccc2[nH]cc(CCN(C)C)c2c1` [Compound 5-MeO-DMT, 5-MeO-DMT], in the test with mice, the “head-twitch response (HTR)” value is on record as “robust, dose-dependent head-twitch response”. Further, the “activation of the 5HT2A sensor assay” value with 5HT2A sensor is listed as “activate”.

Consider `CCN(CC)CCc1c[nH]c2cc(F)ccc12` [Compound 6-F-DET, 6-F-DET], for which, in the test on 5HT2A sensor, the “activation of the 5HT2A sensor assay” value is listed as “do not activate”.

For the compound `COc1ccc2c(CCN(C)C)c[nH]c2c1` [Compound 6-MeO-DMT, 6-MeO-DMT], the “head-twitch response (HTR)” value in the test on mice is recorded as “does not produce a HTR”. For the same compound, the “activation of the 5HT2A sensor assay” value with 5HT2A sensor is “do not activate”.

A word on the EC50: it is the midpoint of the concentration-response curve. By IC50 is commonly meant the point on the concentration scale where inhibition reaches its midpoint. As to `CN1CCc2[nH]c3c(Br)ccc(OCc4ccccc4)c3c2CC1` [Compound 29, 10-(benzyloxy)-7-bromo-3-methyl-1,2,3,4,5,6-hexahydroazepino[4,5-b]indole], in the test on rat cortical neurons, the “Increase in Neurite Branching” value is reported as “B”, the “Increase in Neurite Length” value was “A” and the “Increase in Neurite Number” value is listed as “B”. Besides, the EC50 on 5-HT2A [1] is 10 to 100 nM. This compound came in with an IC50 at 5-HT2A [2] of 10 to 100 nM. At 5-HT2A [3], this compound had an IC50 of 10 to 100 nM.

For `CN(C)CCc1c[nH]c2ccccc12` [DMT, N,N-dimethyltryptamine], the “activation of the 5HT2A sensor assay” value with 5HT2A sensor is “activate”.

In the case of `COc1cc(CC(C)N)c(OC)cc1I` (centres unmarked) [DOI], the “activation of the 5HT2A sensor assay” value in the test on 5HT2A sensor is listed as “activate”.

In the case of `O=C(c1ccc(F)cc1)C1CCN(CCn2c(=O)[nH]c3ccccc3c2=O)CC1` [Ketanserin], in the test on 5HT2A sensor, the “activation of the 5HT2A sensor assay” value was “do not activate”.

Take `CNC(C)Cc1ccc2c(c1)OCO2` [L-MDMA]: the “activation of the 5HT2A sensor assay” value with 5HT2A sensor is “do not activate”.

For `CCN(CC)C(=O)[C@@H]1C=C2c3cccc4[nH]cc(c34)C[C@H]2N(C)C1` [LSD], in the test with 5HT2A sensor, the “activation of the 5HT2A sensor assay” value is “activate”.
